Data on 11 molecules can be found in PubChem BioAssay (NCI).

The structures appear in SMILES notation.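 How tested: cells in 96-well plates exposed to compound for 48 hours at five concentrations. TGI marks complete inhibition of growth.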

One experiment relates to SK-MEL-5 melanoma. Briefly: NCI-60 cell line screen, 48 h.
`COc1c(C)c(C/C=C(\C)CCCCO[Si](c2ccccc2)(c2ccccc2)C(C)(C)C)c(OC)c(OC)c1OC`: the TGI amounted to 38.6 µM.

As for `COC(=O)c1cc2c(n1S(=O)(=O)c1ccc(C)cc1)C(=O)C(=O)c1[nH]cc(C(=O)OCc3ccccc3)c1-2`, the TGI was 0.064 µM.

Molecule `CC(C)CC(=O)OC[n+]1ccc(-c2c(COC(=O)NC(C)C)c(COC(=O)NC(C)C)c3n2CCC3)cc1` displayed a TGI above 100 µM.

With `COC(=O)C1CCC(=O)N1C(c1ccccc1)c1ccc(OC)c(OC)c1` (stereo not given), the TGI was above 100 µM.

Molecule `COc1ccc(C2c3cc4c(cc3OC(NNS(=O)(=O)c3ccc(C)cc3)C2C)OCO4)cc1` (stereo not given) registered a TGI above 100 µM.

Molecule `CCOC(=O)C1=C(C)NC(=S)NC1c1ccccc1` (stereo not given) came in with a TGI above 100 µM.

In turn, `N.N.N.N.O=[N+]([O-])[O-].[Co+3].[N-]=[N+]=[N-].[N-]=[N+]=[N-]` had a TGI above 100 µM.

Take `CC(C)C1/C(=N/O)CC(c2ccccc2)N(N=O)C1c1ccccc1` (stereo not given): the TGI came out at 95.9 µM.

Take `O=[N+]([O-])C(=C1NCCN1)/C(Cl)=C(\Cl)Br`: the TGI was above 100 µM.

In the case of `CCC12C=CCN3CCC4(C(=C(C(=O)OC)[C@@H]1O)Nc1ccccc14)C32` (stereo not given in full), the TGI was 3.45 µM.

For the molecule `O=C(O)CN(CC(=O)O)C1CCCCC1N(CC(=O)O)CC(=O)NCCN=C=S` (stereo not given), the TGI was above 100 µM.

For a further experiment, the system named is SNB-19 CNS. Briefly: NCI-60 cell line screen, 48 h.
As to `COc1c(C)c(C/C=C(\C)CCCCO[Si](c2ccccc2)(c2ccccc2)C(C)(C)C)c(OC)c(OC)c1OC`, the TGI is above 46.4 µM.

The molecule `COC(=O)c1cc2c(n1S(=O)(=O)c1ccc(C)cc1)C(=O)C(=O)c1[nH]cc(C(=O)OCc3ccccc3)c1-2` came in with a TGI of 0.441 µM.

The molecule `CC(C)CC(=O)OC[n+]1ccc(-c2c(COC(=O)NC(C)C)c(COC(=O)NC(C)C)c3n2CCC3)cc1` came in with a TGI above 100 µM.

The molecule `COC(=O)C1CCC(=O)N1C(c1ccccc1)c1ccc(OC)c(OC)c1` (stereo not given) came in with a TGI above 100 µM.

In turn, `COc1ccc(C2c3cc4c(cc3OC(NNS(=O)(=O)c3ccc(C)cc3)C2C)OCO4)cc1` (stereo not given) had a TGI above 100 µM.

For the molecule `CCOC(=O)C1=C(C)NC(=S)NC1c1ccccc1` (stereo not given), the TGI is above 22.5 µM.

Turning to `N.N.N.N.O=[N+]([O-])[O-].[Co+3].[N-]=[N+]=[N-].[N-]=[N+]=[N-]`, the TGI is above 100 µM.

In turn, `CC(C)C1/C(=N/O)CC(c2ccccc2)N(N=O)C1c1ccccc1` (stereo not given) showed a TGI above 100 µM.

As for `O=[N+]([O-])C(=C1NCCN1)/C(Cl)=C(\Cl)Br`, the TGI is above 100 µM.

Consider `CCC12C=CCN3CCC4(C(=C(C(=O)OC)[C@@H]1O)Nc1ccccc14)C32` (stereo not given in full), for which the TGI came to 3.8 µM.

Regarding `O=C(O)CN(CC(=O)O)C1CCCCC1N(CC(=O)O)CC(=O)NCCN=C=S` (stereo not given), the TGI is above 100 µM.

In another experiment the test system is TK-10 renal. Briefly: NCI-60 cell line screen, 48 h.
In turn, `COc1c(C)c(C/C=C(\C)CCCCO[Si](c2ccccc2)(c2ccccc2)C(C)(C)C)c(OC)c(OC)c1OC` came in with a TGI above 31.6 µM.

In turn, `COC(=O)c1cc2c(n1S(=O)(=O)c1ccc(C)cc1)C(=O)C(=O)c1[nH]cc(C(=O)OCc3ccccc3)c1-2` came in with a TGI of 1.51 µM.

The molecule `CC(C)CC(=O)OC[n+]1ccc(-c2c(COC(=O)NC(C)C)c(COC(=O)NC(C)C)c3n2CCC3)cc1` had a TGI above 100 µM.

As for `COC(=O)C1CCC(=O)N1C(c1ccccc1)c1ccc(OC)c(OC)c1` (stereo not given), the TGI is above 100 µM.

The molecule `COc1ccc(C2c3cc4c(cc3OC(NNS(=O)(=O)c3ccc(C)cc3)C2C)OCO4)cc1` (stereo not given) had a TGI above 100 µM.

As for `CCOC(=O)C1=C(C)NC(=S)NC1c1ccccc1` (stereo not given), the TGI is above 100 µM.

Take `N.N.N.N.O=[N+]([O-])[O-].[Co+3].[N-]=[N+]=[N-].[N-]=[N+]=[N-]`: the TGI was above 100 µM.

As to `CC(C)C1/C(=N/O)CC(c2ccccc2)N(N=O)C1c1ccccc1` (stereo not given), the TGI is above 100 µM.

`O=[N+]([O-])C(=C1NCCN1)/C(Cl)=C(\Cl)Br` gave a TGI above 100 µM.

For `CCC12C=CCN3CCC4(C(=C(C(=O)OC)[C@@H]1O)Nc1ccccc14)C32` (stereo not given in full), the TGI worked out at 5.37 µM.

For the molecule `O=C(O)CN(CC(=O)O)C1CCCCC1N(CC(=O)O)CC(=O)NCCN=C=S` (stereo not given), the TGI is above 100 µM.

Another experiment deals with U251 CNS. Briefly: NCI-60 cell line screen, 48 h.
The molecule `COc1c(C)c(C/C=C(\C)CCCCO[Si](c2ccccc2)(c2ccccc2)C(C)(C)C)c(OC)c(OC)c1OC` registered a TGI above 46.4 µM.

In turn, `COC(=O)c1cc2c(n1S(=O)(=O)c1ccc(C)cc1)C(=O)C(=O)c1[nH]cc(C(=O)OCc3ccccc3)c1-2` came in with a TGI of 0.809 µM.

Take `CC(C)CC(=O)OC[n+]1ccc(-c2c(COC(=O)NC(C)C)c(COC(=O)NC(C)C)c3n2CCC3)cc1`: the TGI is above 100 µM.

On to `COC(=O)C1CCC(=O)N1C(c1ccccc1)c1ccc(OC)c(OC)c1` (stereo not given), for which the TGI is above 100 µM.

The molecule `COc1ccc(C2c3cc4c(cc3OC(NNS(=O)(=O)c3ccc(C)cc3)C2C)OCO4)cc1` (stereo not given) came in with a TGI above 100 µM.

In turn, `CCOC(=O)C1=C(C)NC(=S)NC1c1ccccc1` (stereo not given) came in with a TGI above 56.2 µM.

For `N.N.N.N.O=[N+]([O-])[O-].[Co+3].[N-]=[N+]=[N-].[N-]=[N+]=[N-]`, the TGI was above 100 µM.

The molecule `CC(C)C1/C(=N/O)CC(c2ccccc2)N(N=O)C1c1ccccc1` (stereo not given) showed a TGI above 100 µM.

In turn, `O=[N+]([O-])C(=C1NCCN1)/C(Cl)=C(\Cl)Br` came in with a TGI above 100 µM.

`CCC12C=CCN3CCC4(C(=C(C(=O)OC)[C@@H]1O)Nc1ccccc14)C32` (stereo not given in full): the TGI turned out to be 5.52 µM.

For the molecule `O=C(O)CN(CC(=O)O)C1CCCCC1N(CC(=O)O)CC(=O)NCCN=C=S` (stereo not given), the TGI is above 100 µM.

The subject of another experiment is UACC-257 melanoma. Briefly: NCI-60 cell line screen, 48 h.
Molecule `COc1c(C)c(C/C=C(\C)CCCCO[Si](c2ccccc2)(c2ccccc2)C(C)(C)C)c(OC)c(OC)c1OC` yielded a TGI above 46.4 µM.

In the case of `COC(=O)c1cc2c(n1S(=O)(=O)c1ccc(C)cc1)C(=O)C(=O)c1[nH]cc(C(=O)OCc3ccccc3)c1-2`, the TGI came out at 0.112 µM.

As for `CC(C)CC(=O)OC[n+]1ccc(-c2c(COC(=O)NC(C)C)c(COC(=O)NC(C)C)c3n2CCC3)cc1`, the TGI was above 100 µM.

Consider `COC(=O)C1CCC(=O)N1C(c1ccccc1)c1ccc(OC)c(OC)c1` (stereo not given), for which the TGI was above 100 µM.

Molecule `COc1ccc(C2c3cc4c(cc3OC(NNS(=O)(=O)c3ccc(C)cc3)C2C)OCO4)cc1` (stereo not given) yielded a TGI above 100 µM.

Molecule `CCOC(=O)C1=C(C)NC(=S)NC1c1ccccc1` (stereo not given) showed a TGI above 100 µM.

As for `N.N.N.N.O=[N+]([O-])[O-].[Co+3].[N-]=[N+]=[N-].[N-]=[N+]=[N-]`, the TGI is above 100 µM.

As to `CC(C)C1/C(=N/O)CC(c2ccccc2)N(N=O)C1c1ccccc1` (stereo not given), the TGI is above 100 µM.

The molecule `O=[N+]([O-])C(=C1NCCN1)/C(Cl)=C(\Cl)Br` registered a TGI above 87.3 µM.

`CCC12C=CCN3CCC4(C(=C(C(=O)OC)[C@@H]1O)Nc1ccccc14)C32` (stereo not given in full) showed a TGI of 3.42 µM.

Molecule `O=C(O)CN(CC(=O)O)C1CCCCC1N(CC(=O)O)CC(=O)NCCN=C=S` (stereo not given) registered a TGI above 100 µM.
